Assay results from patent US4364958A, “1-Substituted-3-cycloalkyl-sulfonyl-pyrrolidine-2,5-dione derivatives and fungicidal compositions thereof” (Chinoin Gyogyszer es Vegyeszeti Termekek Gyara Rt., priority 1979, dated 1982).
Values after ≈ are worked out from the molar mass of the structure shown. Read-outs that look alike come from different tables or passages of the source.

Legend:
[1] = system: Sporotrichum schenkii CBS.34035; experiment: minimal inhibitory concentration in Sabouraud medium; type: cell-based; details: 288 hours
Text: Sporotrichum schenkii CBS.34035
(§1) As a medium Saboroud medium was employed.

[2] = system: Fusarium monoliforme DSM.11778; experiment: as above; type: cell-based; details: for MIC: Fusarium
Text: Fusarium monoliforme DSM.11778
as §1

[3] = system: Aspergillus fumigatus CBS.11326; experiment: as above; type: cell-based; details: for MIC: Aspergillus fumigatus
Text: Aspergillus fumigatus CBS.11326
as §1

[4] = system: Aspergillus flavus CBS.24765; experiment: as above; type: cell-based; details: for MIC: Aspergillus flavus
Text: Aspergillus flavus CBS.24765
as §1

[5] = system: Epidermophyton floccosum OKI/IV.; experiment: as above; type: cell-based; details: for MIC: Epidermophyton floccosum
Text: Epidermophyton floccosum OKI/IV.
as §1

[6] = system: Candida tropicalis CBS.433; experiment: as above; type: cell-based; details: for MIC: Candida tropicalis
Text: Candida tropicalis CBS.433 "3"
as §1

[7] = system: Penicillium digitatum CCM.F-382; experiment: as above; type: cell-based; details: for MIC: Penicillium digitatum
Text: Penicillium digitatum CCM.F-382
as §1

[8] = system: Trichophyton rubrum CBS.30338; experiment: as above; type: cell-based; details: Trichophyton rubrum
Text: Trichophyton rubrum CBS.30338
as §1

[9] = system: Fusarium graminocorum DSM.11802; experiment: as above; type: cell-based
Text: Fusarium graminocorum DSM.11802
as §1

Candida krusei 79/K47 = experiment: as above; details: Pichia kudriavzevii, read-out: minimal inhibitory concentration
[10] = system: Microsporum gypseum ver. vinosum CBS.10064; experiment: as above; type: cell-based; details: Nannizzia gypsea, 72 h
Text: Microsporum gypseum ver. vinosum CBS.10064
as §1

Verticillium dahlise = experiment: activity against phytopathogenic fungi; type: cell-based
[11] = system: Fusarium oxysporum DSM.10975; experiment: minimal inhibitory concentration in Sabouraud medium; type: cell-based
Text: Fusarium oxysporum DSM.10975
as §1

Botrytis cinerea = experiment: activity against phytopathogenic fungi; type: cell-based
Phytophtora infestans = type: cell-based
[12] = system: Aspergillus niger CCM.F-330; experiment: minimal inhibitory concentration in Sabouraud medium; type: cell-based; details: for MIC: Aspergillus niger
Text: Aspergillus niger CCM.F-330
as §1

[13] = system: Cryptococcus neoform. 78/K16; experiment: as above; details: read-out: minimal inhibitory concentration
[14] = system: Penicillium chrysogenium CBS.19646; experiment: as above; type: cell-based; details: for MIC: Penicillium
Text: Penicillium chrysogenium CBS.19646
as §1

Venturia = experiment: activity against phytopathogenic fungi; type: cell-based
[15] = system: Penicillium digitatum CBS.31948; experiment: minimal inhibitory concentration in Sabouraud medium; type: cell-based; details: for MIC: Penicillium digitatum
Text: Penicillium digitatum CBS.31948
as §1

Sclerotinia sclerotiorum = experiment: activity against phytopathogenic fungi; type: cell-based
Taphrina deformans = experiment: activity against phytopathogenic fungi; type: cell-based
Ascochyta pisi = experiment: activity against phytopathogenic fungi; type: cell-based
Verticillium albo-atrum = experiment: activity against phytopathogenic fungi; type: cell-based
[16] = system: Aspergillus niger CBS.12648; experiment: minimal inhibitory concentration in Sabouraud medium; type: cell-based; details: Aspergillus niger
Text: Aspergillus niger CBS.12648
as §1

[17] = system: Penicillium chrysogenium CCM.F-362; experiment: as above; type: cell-based; details: for MIC: Penicillium
Text: Penicillium chrysogenium CCM.F-362
as §1

[18] = system: Saccharomyces cerevisiae OKI.1282; experiment: as above; type: cell-based; details: for MIC: Saccharomyces cerevisiae
Text: Saccharomyces cerevisiae OKI.1282
as §1

[19] = system: Fusarium culmorum DSM.11425; experiment: as above; type: cell-based
Text: Fusarium culmorum DSM.11425
as §1

[20] = system: Trichophyton mentagrophytes CBS.50148; experiment: as above; type: cell-based; details: for MIC: Trichophyton mentagrophytes
Text: Trichophyton mentagrophytes CBS.50148
as §1

Cercospora beticola = experiment: activity against phytopathogenic fungi; type: cell-based
Candida albicans CBS.562 = experiment: minimal inhibitory concentration in Sabouraud medium; type: cell-based; details: for MIC: Candida albicans
Text: Candida albicans CBS.562 "2"
as §1

O=C1CC(S(=O)(=O)C2CCCCC2)C(=O)N1c1ccccc1 (stereo not shown) [1-Phenyl-3-cyclohexyl-sulfonyl-pyrrolidine-2,5-dione]
minimal inhibitory concentration [1]: 100 µg/mL (≈ 311 µM) | MIC ([1]; Sporotrichum, CBS.34035, 288 h): 50 µg/mL (≈ 156 µM) | minimal inhibitory concentration ([2]; 72 hours): 75 µg/mL (≈ 233 µM) | minimal inhibitory concentration ([2]; 288 hours): 200 µg/mL (≈ 622 µM) | MIC ([2]; DSM.11778, 72 h, 72 hours): 100 µg/mL (≈ 311 µM) | MIC ([2]; DSM.11778, 144 h, 144 hours): 150 µg/mL (≈ 467 µM) | MIC ([2]; DSM.11778, 288 h, 288 hours): 150 µg/mL (≈ 467 µM) | minimal inhibitory concentration ([3]; 288 hours): 200 µg/mL (≈ 622 µM) | MIC ([3]; CBS.11326, 72 h, 72 hours): 50 µg/mL (≈ 156 µM) | MIC ([3]; CBS.11326, 144 h, 144 hours): 150 µg/mL (≈ 467 µM) | MIC ([3]; CBS.11326, 288 h, 288 hours): 150 µg/mL (≈ 467 µM) | minimal inhibitory concentration ([4]; 72 hours): 75 µg/mL (≈ 233 µM) | minimal inhibitory concentration ([4]; 144 hours): 150 µg/mL (≈ 467 µM) | minimal inhibitory concentration ([4]; 288 hours): 200 µg/mL (≈ 622 µM) | MIC ([4]; CBS.24765, 72 h, 72 hours): 100 µg/mL (≈ 311 µM) | MIC ([4]; CBS.24765, 144 h, 144 hours): 200 µg/mL (≈ 622 µM) | MIC ([4]; CBS.24765, 288 h, 288 hours): 250 µg/mL (≈ 778 µM) | minimal inhibitory concentration ([5]; 144 hours): 2.5 µg/mL (≈ 7.78 µM) | minimal inhibitory concentration ([5]; 288 hours): 10 µg/mL (≈ 31.1 µM) | MIC ([5]; 144 h, read-out: minimal inhibitory concentration): 5 µg/mL (≈ 15.6 µM) | MIC ([5]; 288 h, read-out: minimal inhibitory concentration): 5 µg/mL (≈ 15.6 µM) | MIC ([5]; read-out: Minimal inhibitory concentration inhibiting the growth): 1 µg/mL (≈ 3.11 µM) | minimal inhibitory concentration ([6]; 24 hours): 75 µg/mL (≈ 233 µM) | minimal inhibitory concentration ([6]; 48 hours): 75 µg/mL (≈ 233 µM) | MIC ([6]; CBS.433, 24 h, 24 hours): 150 µg/mL (≈ 467 µM) | MIC ([6]; CBS.433, 48 h, 48 hours): 150 µg/mL (≈ 467 µM) | minimal inhibitory concentration ([7]; 288 hours): 50 µg/mL (≈ 156 µM) | MIC ([7]; CCM.F382, 144 h, 144 hours): 50 µg/mL (≈ 156 µM) | MIC ([7]; CCM.F382, 288 h, 288 hours): 75 µg/mL (≈ 233 µM) | MIC ([8]; CBS.30338, 72 h, 72 hours): 2.5 µg/mL (≈ 7.78 µM) | MIC ([8]; CBS.30338, 144 h, 144 hours): 10 µg/mL (≈ 31.1 µM) | MIC ([8]; CBS.30338, 288 h, 288 hours): 10 µg/mL (≈ 31.1 µM) | MIC ([9]; 72 hours): 50 µg/mL (≈ 156 µM) | MIC ([9]; 144 hours): 100 µg/mL (≈ 311 µM) | MIC ([9]; 288 hours): 100 µg/mL (≈ 311 µM) | MIC (Candida krusei 79/K47; 79/K47, 24 h): 10 µg/mL (≈ 31.1 µM) | MIC (Candida krusei 79/K47; 79/K47, 48 h): 10 µg/mL (≈ 31.1 µM) | MIC [10]: 10 µg/mL (≈ 31.1 µM) | activity against Verticillium dahlise (Verticillium dahlise): active | MIC ([11]; 72 hours): 50 µg/mL (≈ 156 µM) | MIC ([11]; 144 hours): 75 µg/mL (≈ 233 µM) | MIC ([11]; 288 hours): 75 µg/mL (≈ 233 µM) | activity against Botrytis cinerea (Botrytis cinerea): active | activity against Phytophtora infestans (Phytophtora infestans): active | minimal inhibitory concentration ([12]; 72 hours): 75 µg/mL (≈ 233 µM) | minimal inhibitory concentration ([12]; 144 hours): 150 µg/mL (≈ 467 µM) | minimal inhibitory concentration ([12]; 288 hours): 150 µg/mL (≈ 467 µM) | MIC ([12]; CCM.F330, 72 h, 72 hours): 150 µg/mL (≈ 467 µM) | MIC ([12]; CCM.F330, 144 h, 144 hours): 200 µg/mL (≈ 622 µM) | MIC ([12]; CCM.F330, 288 h, 288 hours): 250 µg/mL (≈ 778 µM) | MIC ([13]; 24 h): 25 µg/mL (≈ 77.8 µM) | MIC ([13]; 48 h): 25 µg/mL (≈ 77.8 µM) | minimal inhibitory concentration ([14]; 288 hours): 150 µg/mL (≈ 467 µM) | MIC ([14]; CBS.19646, 72 h, 72 hours): 50 µg/mL (≈ 156 µM) | MIC ([14]; CBS.19646, 144 h, 144 hours): 75 µg/mL (≈ 233 µM) | MIC ([14]; CBS.19646, 288 h, 288 hours): 75 µg/mL (≈ 233 µM) | activity against Venturia (Venturia): active | minimal inhibitory concentration ([15]; 288 hours): 50 µg/mL (≈ 156 µM) | MIC ([15]; CBS.31948, 72 h, 72 hours): 10 µg/mL (≈ 31.1 µM) | MIC ([15]; CBS.31948, 144 h, 144 hours): 25 µg/mL (≈ 77.8 µM) | MIC ([15]; CBS.31948, 288 h, 288 hours): 25 µg/mL (≈ 77.8 µM) | activity against Sclerotinia sclerotiorum (Sclerotinia sclerotiorum): active | activity against Taphrina deformans (Taphrina deformans): active | activity against Ascochyta pisi (Ascochyta pisi): active | activity against Verticillium albo-atrum (Verticillium albo-atrum): active | MIC ([16]; CBS.12648, 72 h, 72 hours): 75 µg/mL (≈ 233 µM) | MIC ([16]; CBS.12648, 144 h, 144 hours): 150 µg/mL (≈ 467 µM) | MIC ([16]; CBS.12648, 288 h, 288 hours): 150 µg/mL (≈ 467 µM) | minimal inhibitory concentration ([17]; 144 hours): 150 µg/mL (≈ 467 µM) | MIC ([17]; CCM.F362, 72 h, 72 hours): 75 µg/mL (≈ 233 µM) | MIC ([17]; CCM.F362, 144 h, 144 hours): 200 µg/mL (≈ 622 µM) | MIC ([17]; CCM.F362, 288 h, 288 hours): 200 µg/mL (≈ 622 µM) | minimal inhibitory concentration ([18]; 24 hours): 75 µg/mL (≈ 233 µM) | minimal inhibitory concentration ([18]; 48 hours): 75 µg/mL (≈ 233 µM) | MIC ([18]; OKI.1282, 24 h, 24 hours): 50 µg/mL (≈ 156 µM) | MIC ([18]; OKI.1282, 48 h, 48 hours): 50 µg/mL (≈ 156 µM) | MIC ([19]; 72 hours): 50 µg/mL (≈ 156 µM) | MIC ([19]; 144 hours): 50 µg/mL (≈ 156 µM) | MIC ([19]; 288 hours): 100 µg/mL (≈ 311 µM) | minimal inhibitory concentration ([20]; 72 hours): 2.5 µg/mL (≈ 7.78 µM) | MIC ([20]; CBS.50148, 72 h, 72 hours, read-out: minimal inhibitory concentration): 5 µg/mL (≈ 15.6 µM) | MIC ([20]; CBS.50148, 144 h, 144 hours, read-out: minimal inhibitory concentration): 10 µg/mL (≈ 31.1 µM) | MIC ([20]; CBS.50148, read-out: Minimal inhibitory concentration inhibiting the growth): 2.5 µg/mL (≈ 7.78 µM) | activity against Cercospora beticola (Cercospora beticola): active | minimal inhibitory concentration (Candida albicans CBS.562; 24 hours): 50 µg/mL (≈ 156 µM) | minimal inhibitory concentration (Candida albicans CBS.562; 48 hours): 50 µg/mL (≈ 156 µM) | MIC (Candida albicans CBS.562; CBS.562, 24 h, 24 hours): 75 µg/mL (≈ 233 µM) | MIC (Candida albicans CBS.562; CBS.562, 48 h, 48 hours): 100 µg/mL (≈ 311 µM)
